Assay results reported in ChEMBL document CHEMBL6103639, “Structure-Based Development of 3,4-Fused Tricyclic Benzofuran Derivatives as Polyketide Synthase 13 Inhibitors with Negligible hERG Inhibition” (J Med Chem, 2025).

What was measured:
[1] = test system: Mycobacterium tuberculosis; assay: Antitubercular activity against Mycobacterium tuberculosis H37Rv assessed as reduction in microbial growth by microplate alamar blue assay; assay type: functional
[2] = Metabolic stability in human liver microsomes assessed as intrinsic clearance at 0.1 uM measured upto 60 mins by LC/MS-MS analysis; assay type: ADME, Microsome; settings: read-out: CLH
[3] = biological target: Polyketide synthase Pks13 (Mycobacterium tuberculosis (strain ATCC 25618 / H37Rv)) (UniProt I6X8D2); assay: Induction of stabilization of Mycobacterium tuberculosis H37Rv Pks-13 TE domain assessed as melting temperature incubated for 30 mins by NanoDSF assay
[4] = Metabolic stability in human liver microsomes assessed as half life at 0.1 uM measured upto 60 mins by LC/MS-MS analysis; assay type: ADME, Microsome
[5] = biological target: Polyketide synthase Pks13 (Mycobacterium tuberculosis (strain ATCC 25618 / H37Rv), UniProt I6X8D2); assay: Inhibition of Mycobacterium tuberculosis H37Rv Pks-13 TE domain using 4-MUH as fluorogenic substrate incubated for 90 mins by fluorescence based analysis
[6] = biological target: Polyketide synthase Pks13 (Mycobacterium tuberculosis (strain ATCC 25618 / H37Rv)) (UniProt I6X8D2); assay: Induction of stabilization of Mycobacterium tuberculosis H37Rv Pks-13 TE domain assessed as change in melting temperature incubated for 30 mins by NanoDSF assay
[7] = biological target: Voltage-gated inwardly rectifying potassium channel KCNH2 (Homo sapiens, UniProt Q12809); assay: Inhibition of human ERG expressed in CHO cells incubated for 2.5 mins by Q-patch-clamp electrophysiological analysis; assay type: toxicity, cell-based
[8] = Metabolic stability in human liver microsomes assessed as parent compound remaining at 0.1 uM incubated for 60 mins by LC/MS-MS analysis; assay type: ADME, Microsome; settings: read-out: Stability
[9] = test system: Mycobacterium tuberculosis; assay: Antitubercular activity against Mycobacterium tuberculosis H37Rv assessed as reduction in microbial growth incubated for 6 days by microplate alamar blue assay; assay type: functional; settings: 144 h, time 6 day

Sequence of Voltage-gated inwardly rectifying potassium channel KCNH2 (Q12809 whole entry): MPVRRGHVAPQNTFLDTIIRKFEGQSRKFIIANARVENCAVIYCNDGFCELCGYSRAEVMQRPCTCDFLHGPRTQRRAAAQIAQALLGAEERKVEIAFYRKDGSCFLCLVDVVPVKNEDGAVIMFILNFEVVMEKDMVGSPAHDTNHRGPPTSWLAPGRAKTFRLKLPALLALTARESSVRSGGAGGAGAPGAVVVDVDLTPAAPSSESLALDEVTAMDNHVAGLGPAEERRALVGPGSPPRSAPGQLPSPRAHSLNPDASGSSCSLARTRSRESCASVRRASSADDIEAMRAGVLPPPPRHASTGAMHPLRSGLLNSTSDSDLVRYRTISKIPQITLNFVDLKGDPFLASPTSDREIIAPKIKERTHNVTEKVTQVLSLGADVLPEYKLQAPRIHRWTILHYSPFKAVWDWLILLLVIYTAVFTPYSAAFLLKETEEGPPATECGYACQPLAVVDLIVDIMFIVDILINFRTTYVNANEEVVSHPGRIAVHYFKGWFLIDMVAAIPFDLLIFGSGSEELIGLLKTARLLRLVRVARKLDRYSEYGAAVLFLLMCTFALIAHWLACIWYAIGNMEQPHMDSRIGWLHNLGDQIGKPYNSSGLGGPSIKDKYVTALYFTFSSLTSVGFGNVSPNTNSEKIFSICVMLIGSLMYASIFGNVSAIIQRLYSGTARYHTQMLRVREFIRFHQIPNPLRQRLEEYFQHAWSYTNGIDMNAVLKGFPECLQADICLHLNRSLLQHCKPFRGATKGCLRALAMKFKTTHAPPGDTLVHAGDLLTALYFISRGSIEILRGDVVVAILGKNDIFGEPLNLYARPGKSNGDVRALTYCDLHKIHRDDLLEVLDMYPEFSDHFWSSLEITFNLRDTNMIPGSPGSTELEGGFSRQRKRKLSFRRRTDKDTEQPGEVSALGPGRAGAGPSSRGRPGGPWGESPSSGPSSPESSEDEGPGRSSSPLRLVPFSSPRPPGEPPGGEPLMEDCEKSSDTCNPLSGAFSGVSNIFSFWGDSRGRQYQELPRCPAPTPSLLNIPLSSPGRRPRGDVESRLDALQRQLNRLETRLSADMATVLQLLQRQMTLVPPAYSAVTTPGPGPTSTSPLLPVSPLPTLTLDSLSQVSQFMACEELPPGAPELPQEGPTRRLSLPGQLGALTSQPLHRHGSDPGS
Sequence of Polyketide synthase Pks13 (Mycobacterium tuberculosis (strain ATCC 25618 / H37Rv)) (I6X8D2 whole entry, the tested form may be a part): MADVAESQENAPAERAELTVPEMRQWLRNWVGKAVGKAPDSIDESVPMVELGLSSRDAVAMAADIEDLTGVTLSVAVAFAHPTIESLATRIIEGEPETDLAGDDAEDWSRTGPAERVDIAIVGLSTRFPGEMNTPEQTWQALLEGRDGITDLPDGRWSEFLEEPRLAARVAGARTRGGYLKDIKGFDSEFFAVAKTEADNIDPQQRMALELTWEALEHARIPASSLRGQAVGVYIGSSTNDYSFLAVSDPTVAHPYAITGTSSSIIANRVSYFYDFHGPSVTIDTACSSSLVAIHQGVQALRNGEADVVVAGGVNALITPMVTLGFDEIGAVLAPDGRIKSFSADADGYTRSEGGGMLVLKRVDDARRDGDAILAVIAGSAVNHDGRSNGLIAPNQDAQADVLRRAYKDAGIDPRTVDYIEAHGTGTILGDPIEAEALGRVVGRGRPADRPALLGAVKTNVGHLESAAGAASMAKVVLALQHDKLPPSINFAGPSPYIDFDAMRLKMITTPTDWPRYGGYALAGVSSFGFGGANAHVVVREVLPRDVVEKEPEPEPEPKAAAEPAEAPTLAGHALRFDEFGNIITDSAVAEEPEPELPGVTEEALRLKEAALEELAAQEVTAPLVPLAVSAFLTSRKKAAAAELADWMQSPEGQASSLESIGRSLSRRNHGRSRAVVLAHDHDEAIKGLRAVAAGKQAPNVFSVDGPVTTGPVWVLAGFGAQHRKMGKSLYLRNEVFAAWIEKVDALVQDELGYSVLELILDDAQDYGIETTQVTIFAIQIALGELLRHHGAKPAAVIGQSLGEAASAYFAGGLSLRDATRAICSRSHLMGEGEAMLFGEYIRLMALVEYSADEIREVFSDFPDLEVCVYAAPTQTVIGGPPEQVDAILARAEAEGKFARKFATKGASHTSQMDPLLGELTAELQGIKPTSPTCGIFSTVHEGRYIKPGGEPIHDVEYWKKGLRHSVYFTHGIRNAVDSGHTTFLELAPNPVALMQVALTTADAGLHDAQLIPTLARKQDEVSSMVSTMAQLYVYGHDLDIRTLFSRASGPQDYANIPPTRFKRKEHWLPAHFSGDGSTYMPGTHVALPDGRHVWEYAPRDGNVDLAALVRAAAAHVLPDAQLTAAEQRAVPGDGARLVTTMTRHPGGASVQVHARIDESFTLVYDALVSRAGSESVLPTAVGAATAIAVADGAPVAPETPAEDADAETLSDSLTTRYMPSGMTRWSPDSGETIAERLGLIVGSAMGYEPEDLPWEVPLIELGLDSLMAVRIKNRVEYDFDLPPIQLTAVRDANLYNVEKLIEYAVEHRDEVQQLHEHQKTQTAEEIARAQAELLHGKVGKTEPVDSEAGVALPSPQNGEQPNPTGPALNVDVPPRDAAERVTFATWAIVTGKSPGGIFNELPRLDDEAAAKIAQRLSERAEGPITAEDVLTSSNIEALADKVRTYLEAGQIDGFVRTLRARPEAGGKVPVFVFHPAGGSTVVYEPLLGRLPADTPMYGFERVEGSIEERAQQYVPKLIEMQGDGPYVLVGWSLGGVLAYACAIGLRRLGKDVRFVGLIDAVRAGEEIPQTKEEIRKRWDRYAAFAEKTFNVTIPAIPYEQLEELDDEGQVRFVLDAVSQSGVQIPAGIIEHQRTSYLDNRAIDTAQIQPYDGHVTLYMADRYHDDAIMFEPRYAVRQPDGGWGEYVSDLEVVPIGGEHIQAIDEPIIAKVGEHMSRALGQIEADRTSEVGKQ
Sequence of Polyketide synthase Pks13 (I6X8D2 whole entry, the tested form may be a part): as above

SMILES | MIC [1] [µg/mL] | further results
CC1c2c(O)ccc3c2c(cn3-c2ccc(Br)cc2)CCN1CC1CCC1 (stereo unspecified) | 8 | 
CN1CN(C2CCCCC2)Cc2c(O)ccc3oc(-c4ccc(O)cc4)c(c23)C1=O | 8 | 
CC1c2c(O)ccc3c2c(cn3-c2ccccc2)CCN1CC1CCC1 (stereo unspecified) | 8 | 
CC(=O)c1c(C)n(-c2ccc(Br)cc2)c2ccc(O)c(CN3CCCCC3)c12 | 0.125 | 
O=C(O)Cc1ccccc1Nc1c(Cl)cccc1Cl [DICLOFENAC] |  | microsomal CLint at 0.1 µM [2]: 248 µL/min/mg
CN1CN(CC2CCCC2)Cc2c(O)ccc3c2c(cn3-c2ccc(Br)cc2)C1=O | > 64 | 
CN1CN(CC2CCC2)Cc2c(O)ccc3oc(-c4ccc(F)cc4)c(c23)C1=O | 2 | 
CN1CN(C2CCC2)Cc2c(O)ccc3c2c(cn3-c2ccc(Br)cc2)C1=O | 8 | 
CN1CN(CCCC2CCCCC2)Cc2c(O)ccc3oc(-c4ccc(O)cc4)c(c23)C1=O | > 64 | 
Oc1ccc2c3c(cn2-c2ccc(Br)cc2)CCN(C2CCC2)Cc13 | 16 | 
CN1CN(CCC2CC2)Cc2c(O)ccc3oc(-c4ccc(O)cc4)c(c23)C1=O | 0.25 | 
CN1CN(CC2CCC2)Cc2c(O)ccc3oc(-c4ccc(O)cc4)c(c23)C1=O | 0.016 | Tm [3]: 65.8 °C; half-life at 0.1 µM [4]: 17.7 min; IC50 [5]: 2.1 µM; ΔTm [6]: 6.8 °C; IC50 [7]: > 100 µM; microsomal CLint at 0.1 µM [2]: 78.2 µL/min/mg; remaining at 1 h, 0.1 µM [8]: 8.2%
CC(C)CN1Cc2c(O)ccc3oc(-c4ccc(O)cc4)c(c23)C(=O)N(C)C1 | 0.062 | 
CN1CN(CC2CCC2)Cc2c(O)ccc3oc(-c4ccccc4)c(c23)C1=O | 0.5 | 
O=C1NCN(C2CCCC2)Cc2c(O)ccc3oc(-c4ccc(O)cc4)c1c23 | 0.5 | 
COc1cccc(-c2oc3ccc(O)c4c3c2C(=O)N(C)CN(CC2CCC2)C4)c1 | 4 | 
CC1c2c(O)ccc3c2c(cn3-c2ccc(Br)cc2)CCN1C1CCC1 (stereo unspecified) | 8 | 
CN1CN(CC2CCCCC2)Cc2c(O)ccc3oc(-c4ccc(O)cc4)c(c23)C1=O | 16 | 
CC1c2c(O)ccc3c2c(cn3-c2ccccc2)CCN1C1CCC1 (stereo unspecified) | 16 | 
CN1CN(CC2CC2)Cc2c(O)ccc3c2c(cn3-c2ccc(Br)cc2)C1=O | 8 | 
Oc1ccc2c3c(cn2-c2ccc(Br)cc2)CCN(CC2CCC2)Cc13 | 8 | half-life at 0.1 µM [4]: 51.5 min; microsomal CLint at 0.1 µM [2]: 26.9 µL/min/mg; remaining at 1 h, 0.1 µM [8]: 44.1%

SMILES | MIC [1] [µg/mL] | further results
O=c1oc2cc(O)ccc2c2oc3ccc(O)c(CN4CCCCC4)c3c12 |  | IC50 [7]: 0.52 µM
CN1CN(C2CCCC2)Cc2c(O)ccc3c2c(cn3-c2ccc(Br)cc2)C1=O | 1 | 
CC1c2c(O)ccc3c2c(cn3-c2ccc(Br)cc2)C(=O)CN1CC1CCC1 (stereo unspecified) | > 64 | 
CNC(=O)c1c(-c2ccc(O)cc2)oc2ccc(O)c(CN3CCCCC3)c12 |  | Tm [3]: 67.4 °C; ΔTm [6]: 8.4 °C
COc1ccc(-c2oc3ccc(OC)c4c3c2C(=O)N(C)CN(CC2CCC2)C4)cc1 | 64 | 
CN1CN(CC2CCC2)Cc2c(O)ccc3c2c(cn3-c2ccc(Br)cc2)C1=O | 8 | 
COc1ccc2oc(-c3ccc(O)cc3)c3c2c1CN(CC1CCC1)CN(C)C3=O | 64 | 
CN1CN(C2CCCC2)Cc2c(O)ccc3oc(-c4ccc(O)cc4)c(c23)C1=O | 0.125 | Tm [3]: 66 °C; half-life at 0.1 µM [4]: 28.9 min; IC50 [5]: 5.87 µM; ΔTm [6]: 7 °C; IC50 [7]: > 100 µM; microsomal CLint at 0.1 µM [2]: 48 µL/min/mg; remaining at 1 h, 0.1 µM [8]: 23.3%
CN1CN(CC2CC2)Cc2c(O)ccc3oc(-c4ccc(O)cc4)c(c23)C1=O | 0.031 | IC50 [7]: > 100 µM
CN1CN(C2CCC2)Cc2c(O)ccc3oc(-c4ccc(O)cc4)c(c23)C1=O | 0.125 | 
CC1c2c(O)ccc3c2c(cn3-c2ccccc2)CCN1CC1CC1 (stereo unspecified) | 16 | 
CC1c2c(O)ccc3c2c(cn3-c2ccc(Br)cc2)CCN1CC1CC1 (stereo unspecified) | 8 | 
CC(C)CCN1Cc2c(O)ccc3oc(-c4ccc(O)cc4)c(c23)C(=O)N(C)C1 | 0.25 | 
CC1c2c(O)ccc3c2c(cn3-c2ccc(Br)cc2)C(=O)CN1C1CCC1 (stereo unspecified) | 64 | 
C[C@]12CC[C@H]3[C@@H](CCC4=CC(=O)CC[C@@]43C)[C@@H]1CC[C@@H]2O [TESTOSTERONE] |  | remaining at 1 h, 0.1 µM [8]: 4.1%
CC1c2c(O)ccc3c2c(cn3-c2ccc(Br)cc2)C(=O)CN1CC1CC1 (stereo unspecified) | 32 | 
CN1CN(CC2CCCC2)Cc2c(O)ccc3oc(-c4ccc(O)cc4)c(c23)C1=O | 2 | 
COc1ccc(-c2oc3ccc(O)c4c3c2C(=O)N(C)CN(CC2CCC2)C4)cc1 | 0.25 | 
CCOC(=O)c1c(NC(=O)c2c(F)c(F)c(F)c(F)c2F)sc2c1CCN(CC)C2 |  | MIC [9]: 0.23 µM
Oc1ccc2c3c(cn2-c2ccc(Br)cc2)CCN(CC2CC2)Cc13 | 16 | 
CN1CN(CC2CCC2)Cc2c(O)ccc3oc(-c4cccc(O)c4)c(c23)C1=O | 0.125 | 
